Test systems include MOLT-4 leukemia; MCF7 breast; UACC-62 melanoma; RXF 393 renal; SK-MEL-5 melanoma; OVCAR-4 ovarian; NCI-H522 lung; UO-31 renal; MDA-N; UACC-257 melanoma; M14 melanoma; MDA-MB-435; KM12 colon; TK-10 renal; SNB-19 CNS; T-47D breast; SR leukemia; SK-MEL-28 melanoma; SNB-75 CNS; SK-MEL-2 melanoma.
Experiment in all cases: NCI-60 cell line screen, 48 h

Each structure is given as a SMILES string.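 96-well plates; 48 h exposure; 5 concentrations. Endpoints by linear interpolation between flanking doses. Not reached: highest tested concentration assigned. The concentration for full growth arrest is given as TGI.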

On to `CC(=O)OC[C@H]1[C@@H]2C(CC[C@]13CO3)OC(=O)CC(C)[C@]2(C)CCc1ccoc1` (stereo not given in full), for which the TGI with MOLT-4 leukemia, with MCF7 breast, in the assay on UACC-62 melanoma, with RXF 393 renal, in the assay on SK-MEL-5 melanoma and in the assay with OVCAR-4 ovarian was above 100 µM each time. The TGI with NCI-H522 lung, in the assay with UO-31 renal, with MDA-N, in the assay on UACC-257 melanoma, in the assay with M14 melanoma and with MDA-MB-435 was above 100 µM each time. For the same compound, the TGI with KM12 colon, in the assay on TK-10 renal, in the assay on SNB-19 CNS, in the assay on T-47D breast, with SR leukemia and in the assay with SK-MEL-28 melanoma was above 100 µM each time.
With `COc1ccc2c(c1)CCCc1cn[nH]c1-2`, the TGI with MOLT-4 leukemia, in the assay on MCF7 breast, in the assay on UACC-62 melanoma, in the assay on SNB-75 CNS, in the assay with RXF 393 renal and with SK-MEL-5 melanoma was above 100 µM throughout. Further, the TGI with OVCAR-4 ovarian, in the assay with NCI-H522 lung, with UO-31 renal, in the assay with UACC-257 melanoma, with KM12 colon and in the assay with SNB-19 CNS was above 100 µM in each case. For the same compound, the TGI in the assay with SK-MEL-2 melanoma and with SK-MEL-28 melanoma was above 100 µM throughout.
For the compound `COc1ccc(-c2c(C#N)c(NC(=S)NC(=O)c3ccccc3)nc3c2CCCC3)cc1OC`, the TGI in the assay with MOLT-4 leukemia was above 100 µM; in the assay on MCF7 breast, above 100 µM; in the assay on UACC-62 melanoma, above 100 µM; in the assay on SNB-75 CNS it was above 100 µM; in the assay on RXF 393 renal, 68.1 µM; with SK-MEL-5 melanoma, above 100 µM. In addition, the TGI with OVCAR-4 ovarian, in the assay on UO-31 renal, with MDA-N, with UACC-257 melanoma, in the assay on M14 melanoma and in the assay on MDA-MB-435 was above 100 µM in each case. In addition, the TGI was above 100 µM in the assay with KM12 colon; above 100 µM in the assay on TK-10 renal; above 100 µM with SNB-19 CNS; 89 µM in the assay on T-47D breast; above 100 µM in the assay with SR leukemia; above 100 µM in the assay with SK-MEL-28 melanoma.
For `O=[N+]([O-])c1ccccc1N=Nc1c(O)sc2ccccc12`, the TGI is above 100 µM with MOLT-4 leukemia; above 100 µM in the assay with MCF7 breast; above 100 µM with UACC-62 melanoma; 79.5 µM with SNB-75 CNS; above 100 µM with SK-MEL-5 melanoma; 98.4 µM in the assay with OVCAR-4 ovarian. The TGI with NCI-H522 lung, in the assay with UO-31 renal, with MDA-N, with UACC-257 melanoma, in the assay on M14 melanoma and in the assay on MDA-MB-435 was above 100 µM in each case. The TGI in the assay on KM12 colon, with TK-10 renal, in the assay on SNB-19 CNS, in the assay with T-47D breast, with SK-MEL-2 melanoma and in the assay on SR leukemia was above 100 µM in each case. The compound further returned a TGI in the assay with SK-MEL-28 melanoma above 100 µM.
On to `COC(=O)C1(c2ccc(N(C)C)cc2OC)CCCN(C(=O)Oc2ccccc2[N+](=O)[O-])CCc2c1[nH]c1ccccc21` (stereo not given), for which the TGI in the assay with MOLT-4 leukemia, with MCF7 breast, in the assay on UACC-62 melanoma, in the assay with SNB-75 CNS, in the assay with RXF 393 renal and with SK-MEL-5 melanoma was above 100 µM throughout. Moreover, the TGI in the assay with NCI-H522 lung, in the assay on UO-31 renal, in the assay with MDA-N, with UACC-257 melanoma, with M14 melanoma and in the assay on MDA-MB-435 was above 100 µM each time. The TGI in the assay with KM12 colon, in the assay with TK-10 renal, with T-47D breast, with SK-MEL-2 melanoma, in the assay on SR leukemia and with SK-MEL-28 melanoma was above 100 µM throughout.
For the compound `Oc1ccc2ccccc2c1N=Nc1ccc(F)cc1`, the TGI with MOLT-4 leukemia, with UACC-62 melanoma, in the assay on SNB-75 CNS, in the assay with RXF 393 renal, in the assay with SK-MEL-5 melanoma and in the assay on OVCAR-4 ovarian was above 100 µM throughout. Besides, the TGI with NCI-H522 lung, in the assay with UO-31 renal, in the assay with M14 melanoma, in the assay on KM12 colon, in the assay with TK-10 renal and in the assay on SNB-19 CNS was above 100 µM throughout. Further, the TGI in the assay on SK-MEL-2 melanoma, in the assay on SR leukemia and with SK-MEL-28 melanoma was above 100 µM throughout.
Take `CN(CCCNc1ccc2ncn3c4ccccc4c(=O)c1c23)CCCN1C(=O)c2cccc3cc([N+](=O)[O-])cc(c23)C1=O`: the TGI in the assay with MOLT-4 leukemia stood at 0.193 µM; with MCF7 breast, 0.114 µM; with SNB-75 CNS, 1.81 µM; in the assay with RXF 393 renal it was 2.14 µM; with OVCAR-4 ovarian, 2.75 µM; in the assay with NCI-H522 lung, 1.48 µM. For the same compound, the TGI is 2.26 µM in the assay on UO-31 renal; 2.01 µM in the assay on MDA-N; 2.1 µM with UACC-257 melanoma; 1.69 µM in the assay with M14 melanoma; 2.13 µM with MDA-MB-435; 1.36 µM in the assay on KM12 colon. The TGI in the assay on TK-10 renal was 0.156 µM; in the assay on SNB-19 CNS it was 2.28 µM; with T-47D breast it was 3.42 µM; in the assay on SK-MEL-2 melanoma it was 6.88 µM; in the assay on SK-MEL-28 melanoma it was 2.86 µM.
Take `CC(C)CCN=c1cc2n(-c3ccc(Cl)cc3)c3ccccc3nc-2cc1Nc1ccc(Cl)cc1`: the TGI with MOLT-4 leukemia was above 51.8 µM; in the assay with MCF7 breast, above 42 µM; in the assay on UACC-62 melanoma, 20.4 µM; with SNB-75 CNS, above 91.4 µM; in the assay on RXF 393 renal, 10.9 µM; with SK-MEL-5 melanoma, 25.3 µM. For the same compound, the TGI in the assay on OVCAR-4 ovarian was 18.4 µM; in the assay on NCI-H522 lung, 7.06 µM; in the assay with UO-31 renal it was 18.9 µM; with UACC-257 melanoma, 19.7 µM; with KM12 colon, above 41.2 µM; in the assay on SNB-19 CNS it was above 100 µM. Further, the results for the TGI in the assay on SK-MEL-2 melanoma and in the assay with SK-MEL-28 melanoma were 12.3 µM and above 82.8 µM, respectively.
`CC(C(=O)O)c1cnn(-c2ccccc2)c1-n1cccc1` (stereo not given): the TGI in the assay on MOLT-4 leukemia, with MCF7 breast, in the assay with UACC-62 melanoma, in the assay with SNB-75 CNS, in the assay with RXF 393 renal and with SK-MEL-5 melanoma was above 100 µM throughout. The TGI in the assay on OVCAR-4 ovarian, in the assay with NCI-H522 lung, in the assay on UO-31 renal, with UACC-257 melanoma, in the assay with KM12 colon and in the assay with SNB-19 CNS was above 100 µM in each case. Also, the TGI with SK-MEL-2 melanoma and in the assay with SK-MEL-28 melanoma was above 100 µM throughout.
On to `C=CCNc1ccc(C)cc1`, for which the TGI in the assay with MOLT-4 leukemia, in the assay with MCF7 breast, in the assay on SNB-75 CNS, with RXF 393 renal, with SK-MEL-5 melanoma and in the assay on OVCAR-4 ovarian was above 100 µM throughout. The TGI in the assay on NCI-H522 lung, in the assay with UO-31 renal, in the assay on MDA-N, with UACC-257 melanoma, with M14 melanoma and in the assay on MDA-MB-435 was above 100 µM throughout. In addition, the TGI in the assay on KM12 colon, in the assay on TK-10 renal, in the assay on SNB-19 CNS, with T-47D breast, in the assay on SR leukemia and in the assay on SK-MEL-28 melanoma was above 100 µM throughout.

The values are drawn from PubChem BioAssay (NCI).
